Measurements published in ChEMBL document CHEMBL4507316 (2021).

Legend:
[1] = target: TGF-beta receptor type-2 (Homo sapiens) (UniProt P37173); test: TGFB-R2 ProQinase selectivity panel; settings: Compound concentration 1.0 uM
[2] = target: Homeodomain-interacting protein kinase 3 (Homo sapiens) (UniProt Q9H422); test: HIPK3 ProQinase selectivity panel; settings: Compound concentration 1.0 uM
[3] = target: Cyclin-dependent kinase 5/CDK5 activator 1 (Homo sapiens) (UniProt Q00535+Q15078); test: CDK5/p35NCK ProQinase selectivity panel; type: protein-complex assay; settings: Compound concentration 1.0 uM
[4] = target: Mast/stem cell growth factor receptor Kit (Homo sapiens) (UniProt P10721); test: KIT wt ProQinase selectivity panel; settings: Compound concentration 1.0 uM
[5] = target: Epidermal growth factor receptor (Homo sapiens) (UniProt P00533); test: EGF-R wt ProQinase selectivity panel; settings: Compound concentration 1.0 uM
[6] = target: Mitogen-activated protein kinase 10 (Homo sapiens) (UniProt P53779); test: JNK3 ProQinase selectivity panel; settings: Compound concentration 1.0 uM
[7] = target: Homeodomain-interacting protein kinase 2 (Homo sapiens) (UniProt Q9H2X6); test: HIPK2 ProQinase selectivity panel; settings: Compound concentration 1.0 uM
[8] = target: Dual serine/threonine and tyrosine protein kinase (Homo sapiens) (UniProt Q6XUX3); test: RIPK5 ProQinase selectivity panel; settings: Compound concentration 1.0 uM
[9] = target: Mitogen-activated protein kinase kinase kinase 10 (Homo sapiens) (UniProt Q02779); test: MAP3K10 ProQinase selectivity panel; settings: Compound concentration 1.0 uM
[10] = target: Muscarinic acetylcholine receptor M4 (Homo sapiens) (UniProt P08173); settings: Compound concentration 10.0 uM
[11] = target: Serine/threonine-protein kinase 16 (Homo sapiens) (UniProt O75716); test: TSF1 ProQinase selectivity panel; settings: Compound concentration 1.0 uM
[12] = target: Serine/threonine-protein kinase SIK2 (Homo sapiens) (UniProt Q9H0K1); test: SNF1LK2 ProQinase selectivity panel; settings: Compound concentration 1.0 uM
[13] = target: Delta-type opioid receptor (Homo sapiens) (UniProt P41143); settings: Compound concentration 10.0 uM
[14] = test system: Leucine-rich repeat serine/threonine-protein kinase 2 (Homo sapiens), Q5S007 [R1441C]; test: LRRK2 R1441C ProQinase selectivity panel; settings: Compound concentration 1.0 uM
[15] = target: Calcium/calmodulin-dependent protein kinase type II subunit beta (Homo sapiens) (UniProt Q13554); test: CAMK2B ProQinase selectivity panel; settings: Compound concentration 1.0 uM
Chain of Calcium/calmodulin-dependent protein kinase type II subunit beta (Homo sapiens) (Q13554 whole entry): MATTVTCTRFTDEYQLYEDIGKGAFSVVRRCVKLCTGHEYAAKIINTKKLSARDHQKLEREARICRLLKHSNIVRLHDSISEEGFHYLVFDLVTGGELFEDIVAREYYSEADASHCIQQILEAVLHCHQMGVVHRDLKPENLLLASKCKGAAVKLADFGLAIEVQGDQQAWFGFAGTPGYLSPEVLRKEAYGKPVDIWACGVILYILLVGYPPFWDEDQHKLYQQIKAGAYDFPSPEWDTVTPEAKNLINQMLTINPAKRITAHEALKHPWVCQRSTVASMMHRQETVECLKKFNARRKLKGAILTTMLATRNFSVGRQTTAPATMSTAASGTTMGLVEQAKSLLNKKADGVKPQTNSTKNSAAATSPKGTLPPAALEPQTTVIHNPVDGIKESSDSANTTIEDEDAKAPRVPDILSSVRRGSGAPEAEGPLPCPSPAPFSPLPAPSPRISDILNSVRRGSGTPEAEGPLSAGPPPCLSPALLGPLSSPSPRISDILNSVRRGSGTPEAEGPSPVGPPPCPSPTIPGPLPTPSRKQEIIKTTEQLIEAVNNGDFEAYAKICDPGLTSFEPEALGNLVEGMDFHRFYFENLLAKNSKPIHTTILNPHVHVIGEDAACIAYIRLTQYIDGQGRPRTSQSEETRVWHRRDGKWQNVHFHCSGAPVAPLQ

[16] = target: Ribosomal protein S6 kinase alpha-3 (Homo sapiens) (UniProt P51812); test: RPS6KA3 ProQinase selectivity panel; settings: Compound concentration 1.0 uM
[17] = target: D(2) dopamine receptor (Homo sapiens) (UniProt P14416); settings: Compound concentration 10.0 uM
[18] = target: RAC-beta serine/threonine-protein kinase (Homo sapiens) (UniProt P31751); test: AKT2 ProQinase selectivity panel; settings: Compound concentration 1.0 uM
[19] = target: Tyrosine-protein kinase Lck (Homo sapiens) (UniProt P06239); test: LCK ProQinase selectivity panel; settings: Compound concentration 1.0 uM
[20] = test system: Epidermal growth factor receptor (Homo sapiens), P00533 [UNDEFINED MUTATION]; test: EGF-R d747-749/A750P ProQinase selectivity panel; settings: Compound concentration 1.0 uM
Chain of Epidermal growth factor receptor (Homo sapiens), P00533 [UNDEFINED MUTATION] (P00533 whole entry, looked up, stated change not applied): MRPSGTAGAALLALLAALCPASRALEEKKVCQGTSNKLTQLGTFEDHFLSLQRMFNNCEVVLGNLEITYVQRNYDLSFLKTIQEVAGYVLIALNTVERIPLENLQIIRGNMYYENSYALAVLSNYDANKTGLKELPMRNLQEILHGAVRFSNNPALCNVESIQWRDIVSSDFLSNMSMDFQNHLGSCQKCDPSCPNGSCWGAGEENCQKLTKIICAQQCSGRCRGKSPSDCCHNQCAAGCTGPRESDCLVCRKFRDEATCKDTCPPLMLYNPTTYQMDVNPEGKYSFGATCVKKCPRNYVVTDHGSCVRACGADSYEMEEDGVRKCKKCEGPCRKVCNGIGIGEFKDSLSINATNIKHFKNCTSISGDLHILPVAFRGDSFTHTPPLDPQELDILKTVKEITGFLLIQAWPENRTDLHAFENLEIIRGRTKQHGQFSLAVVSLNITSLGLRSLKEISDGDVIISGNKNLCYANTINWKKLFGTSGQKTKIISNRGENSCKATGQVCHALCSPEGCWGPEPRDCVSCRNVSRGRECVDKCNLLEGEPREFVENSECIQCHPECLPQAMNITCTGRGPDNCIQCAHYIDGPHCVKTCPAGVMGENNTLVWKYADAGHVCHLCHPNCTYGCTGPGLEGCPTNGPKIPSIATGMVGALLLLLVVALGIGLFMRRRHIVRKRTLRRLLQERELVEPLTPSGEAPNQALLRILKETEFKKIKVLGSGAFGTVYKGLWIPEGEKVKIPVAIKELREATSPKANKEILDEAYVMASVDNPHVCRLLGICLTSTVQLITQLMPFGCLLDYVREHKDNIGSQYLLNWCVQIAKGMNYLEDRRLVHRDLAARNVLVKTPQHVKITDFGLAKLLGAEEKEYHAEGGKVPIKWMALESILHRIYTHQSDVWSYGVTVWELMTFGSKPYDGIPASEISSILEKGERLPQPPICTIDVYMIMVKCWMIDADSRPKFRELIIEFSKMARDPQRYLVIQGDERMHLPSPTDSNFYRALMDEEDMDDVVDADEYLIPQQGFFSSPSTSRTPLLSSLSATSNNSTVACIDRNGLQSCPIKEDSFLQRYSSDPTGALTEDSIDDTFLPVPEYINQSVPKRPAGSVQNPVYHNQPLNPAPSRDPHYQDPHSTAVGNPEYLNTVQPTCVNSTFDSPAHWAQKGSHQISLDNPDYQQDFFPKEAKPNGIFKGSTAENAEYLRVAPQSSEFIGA

[21] = target: Ephrin type-A receptor 8 (Homo sapiens) (UniProt P29322); test: EPHA8 ProQinase selectivity panel; settings: Compound concentration 1.0 uM
[22] = target: Fibroblast growth factor receptor 2 (Homo sapiens) (UniProt P21802); test: FGF-R2 ProQinase selectivity panel; settings: Compound concentration 1.0 uM
[23] = test system: Hepatocyte growth factor receptor (Homo sapiens), P08581 [M1250T]; test: MET M1250T ProQinase selectivity panel; settings: Compound concentration 1.0 uM
[24] = target: Bone morphogenetic protein receptor type-1A (Homo sapiens) (UniProt P36894); test: BMPR1A ProQinase selectivity panel; settings: Compound concentration 1.0 uM
Chain of Bone morphogenetic protein receptor type-1A (Homo sapiens) (P36894 whole entry): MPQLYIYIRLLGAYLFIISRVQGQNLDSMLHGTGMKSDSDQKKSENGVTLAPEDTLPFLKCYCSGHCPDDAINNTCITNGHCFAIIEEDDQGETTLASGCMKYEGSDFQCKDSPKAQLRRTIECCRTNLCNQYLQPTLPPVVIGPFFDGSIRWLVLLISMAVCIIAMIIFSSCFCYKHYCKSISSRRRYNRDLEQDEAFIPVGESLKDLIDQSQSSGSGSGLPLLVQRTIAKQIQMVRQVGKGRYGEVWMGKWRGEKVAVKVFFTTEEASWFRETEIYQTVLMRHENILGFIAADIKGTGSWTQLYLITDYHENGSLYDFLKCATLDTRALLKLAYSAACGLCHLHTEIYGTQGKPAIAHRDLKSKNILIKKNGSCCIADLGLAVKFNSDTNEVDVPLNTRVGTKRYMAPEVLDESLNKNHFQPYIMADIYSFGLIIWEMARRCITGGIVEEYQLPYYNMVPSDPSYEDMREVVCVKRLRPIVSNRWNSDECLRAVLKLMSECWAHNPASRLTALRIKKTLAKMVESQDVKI

[25] = target: Receptor tyrosine-protein kinase erbB-2 (Homo sapiens) (UniProt P04626); test: ERBB2 ProQinase selectivity panel; settings: Compound concentration 1.0 uM
[26] = target: Ephrin type-B receptor 1 (Homo sapiens) (UniProt P54762); test: EPHB1 ProQinase selectivity panel; settings: Compound concentration 1.0 uM
[27] = target: Vascular endothelial growth factor receptor 1 (Homo sapiens) (UniProt P17948); test: VEGF-R1 ProQinase selectivity panel; settings: Compound concentration 1.0 uM
[28] = target: Dual specificity protein kinase CLK2 (Homo sapiens) (UniProt P49760); test: CLK2 ProQinase selectivity panel; settings: Compound concentration 1.0 uM
[29] = test system: Platelet-derived growth factor receptor alpha (Homo sapiens), P16234 [D842V]; test: PDGFR-alpha D842V ProQinase selectivity panel; settings: Compound concentration 1.0 uM
[30] = target: Sigma non-opioid intracellular receptor 1 (Homo sapiens) (UniProt Q99720); settings: Compound concentration 10.0 uM
[31] = target: Receptor-interacting serine/threonine-protein kinase 2 (Homo sapiens) (UniProt O43353); test: RIPK2 ProQinase selectivity panel; settings: Compound concentration 1.0 uM
[32] = target: Receptor-type tyrosine-protein kinase FLT3 (Homo sapiens) (UniProt P36888); test: FLT3 wt ProQinase selectivity panel; settings: Compound concentration 1.0 uM
[33] = target: Ephrin type-A receptor 7 (Homo sapiens) (UniProt Q15375); test: EPHA7 ProQinase selectivity panel; settings: Compound concentration 1.0 uM
[34] = target: Serine/threonine-protein kinase MARK1 (Homo sapiens) (UniProt Q9P0L2); test: MARK1 ProQinase selectivity panel; settings: Compound concentration 1.0 uM
Chain of Serine/threonine-protein kinase MARK1 (Homo sapiens) (Q9P0L2 whole entry, looked up): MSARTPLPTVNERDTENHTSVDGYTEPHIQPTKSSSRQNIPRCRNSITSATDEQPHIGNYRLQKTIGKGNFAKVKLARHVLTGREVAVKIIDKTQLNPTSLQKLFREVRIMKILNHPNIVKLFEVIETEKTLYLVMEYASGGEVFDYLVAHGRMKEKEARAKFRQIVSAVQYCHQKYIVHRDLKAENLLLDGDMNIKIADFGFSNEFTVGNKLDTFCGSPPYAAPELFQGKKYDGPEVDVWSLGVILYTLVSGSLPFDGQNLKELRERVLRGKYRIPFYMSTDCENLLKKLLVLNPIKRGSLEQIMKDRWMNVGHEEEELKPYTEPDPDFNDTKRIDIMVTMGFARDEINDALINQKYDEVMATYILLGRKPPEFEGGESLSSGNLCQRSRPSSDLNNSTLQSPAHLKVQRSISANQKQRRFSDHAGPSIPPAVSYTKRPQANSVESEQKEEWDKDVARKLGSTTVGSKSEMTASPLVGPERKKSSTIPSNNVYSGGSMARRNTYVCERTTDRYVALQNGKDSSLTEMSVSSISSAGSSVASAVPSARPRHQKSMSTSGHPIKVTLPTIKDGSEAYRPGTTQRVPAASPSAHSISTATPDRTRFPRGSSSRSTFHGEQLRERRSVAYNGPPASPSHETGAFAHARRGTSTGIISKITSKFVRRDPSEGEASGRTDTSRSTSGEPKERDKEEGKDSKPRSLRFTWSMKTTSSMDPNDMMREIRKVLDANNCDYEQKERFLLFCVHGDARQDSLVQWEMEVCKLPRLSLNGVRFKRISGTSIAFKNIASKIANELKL

[35] = target: Myosin light chain kinase, smooth muscle (Homo sapiens) (UniProt Q15746); test: MYLK ProQinase selectivity panel; settings: Compound concentration 1.0 uM
[36] = target: MAP kinase-interacting serine/threonine-protein kinase 2 (Homo sapiens) (UniProt Q9HBH9); test: MKNK2 ProQinase selectivity panel; settings: Compound concentration 1.0 uM
[37] = target: Mitogen-activated protein kinase 11 (Homo sapiens, UniProt Q15759); test: p38-beta ProQinase selectivity panel; settings: Compound concentration 1.0 uM
[38] = target: Ephrin type-B receptor 4 (Homo sapiens) (UniProt P54760); test: EPHB4 ProQinase selectivity panel; settings: Compound concentration 1.0 uM
Chain of Ephrin type-B receptor 4 (Homo sapiens) (P54760 whole entry): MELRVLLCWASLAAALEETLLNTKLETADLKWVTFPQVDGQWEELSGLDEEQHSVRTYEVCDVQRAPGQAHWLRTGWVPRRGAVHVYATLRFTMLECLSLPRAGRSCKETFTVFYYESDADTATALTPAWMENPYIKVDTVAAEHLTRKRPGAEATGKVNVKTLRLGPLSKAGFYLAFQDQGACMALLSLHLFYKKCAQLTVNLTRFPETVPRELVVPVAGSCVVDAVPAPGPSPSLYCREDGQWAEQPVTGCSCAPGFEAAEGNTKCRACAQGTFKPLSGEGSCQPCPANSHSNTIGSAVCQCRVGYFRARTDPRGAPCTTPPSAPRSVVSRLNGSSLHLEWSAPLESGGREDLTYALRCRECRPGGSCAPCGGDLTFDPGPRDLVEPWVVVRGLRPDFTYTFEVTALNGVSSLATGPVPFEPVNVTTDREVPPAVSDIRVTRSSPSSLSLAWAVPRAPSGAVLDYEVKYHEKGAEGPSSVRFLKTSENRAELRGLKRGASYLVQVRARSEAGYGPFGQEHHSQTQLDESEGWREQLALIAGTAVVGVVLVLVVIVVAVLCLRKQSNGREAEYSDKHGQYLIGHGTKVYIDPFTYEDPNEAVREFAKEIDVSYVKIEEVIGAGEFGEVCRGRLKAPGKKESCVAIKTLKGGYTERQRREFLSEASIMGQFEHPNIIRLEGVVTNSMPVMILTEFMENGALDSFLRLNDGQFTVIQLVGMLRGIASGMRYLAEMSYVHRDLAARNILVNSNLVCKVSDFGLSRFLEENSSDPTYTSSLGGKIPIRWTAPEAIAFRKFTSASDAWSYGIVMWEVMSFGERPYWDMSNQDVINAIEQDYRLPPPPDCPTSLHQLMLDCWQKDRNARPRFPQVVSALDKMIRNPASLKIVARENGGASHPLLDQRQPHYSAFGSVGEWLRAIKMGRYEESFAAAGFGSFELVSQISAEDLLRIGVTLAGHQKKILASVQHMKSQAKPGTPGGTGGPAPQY

[39] = target: D(1A) dopamine receptor (Homo sapiens) (UniProt P21728); settings: Compound concentration 10.0 uM
[40] = target: Proto-oncogene tyrosine-protein kinase ROS (Homo sapiens) (UniProt P08922); test: ROS ProQinase selectivity panel; settings: Compound concentration 1.0 uM
[41] = target: Sigma intracellular receptor 2 (Homo sapiens, UniProt Q5BJF2); test: GPCRScan assay: inhibition of Sigma 2; parameters: radioligand conc. used [nm] 5.0, parental cells HEKT
Chain of Sigma intracellular receptor 2 (Q5BJF2 whole entry): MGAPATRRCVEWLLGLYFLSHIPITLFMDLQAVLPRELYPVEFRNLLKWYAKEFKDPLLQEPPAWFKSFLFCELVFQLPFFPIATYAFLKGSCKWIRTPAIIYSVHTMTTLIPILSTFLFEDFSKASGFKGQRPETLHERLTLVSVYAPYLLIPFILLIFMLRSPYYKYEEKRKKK

[42] = target: 5-hydroxytryptamine receptor 2B (Homo sapiens, UniProt P41595); test: GPCRScan assay: inhibition of 5-HT2B; parameters: radioligand conc. used [nm] 1.0 – 2.0, parental cells stable HEK
Chain of 5-hydroxytryptamine receptor 2B (P41595 whole entry): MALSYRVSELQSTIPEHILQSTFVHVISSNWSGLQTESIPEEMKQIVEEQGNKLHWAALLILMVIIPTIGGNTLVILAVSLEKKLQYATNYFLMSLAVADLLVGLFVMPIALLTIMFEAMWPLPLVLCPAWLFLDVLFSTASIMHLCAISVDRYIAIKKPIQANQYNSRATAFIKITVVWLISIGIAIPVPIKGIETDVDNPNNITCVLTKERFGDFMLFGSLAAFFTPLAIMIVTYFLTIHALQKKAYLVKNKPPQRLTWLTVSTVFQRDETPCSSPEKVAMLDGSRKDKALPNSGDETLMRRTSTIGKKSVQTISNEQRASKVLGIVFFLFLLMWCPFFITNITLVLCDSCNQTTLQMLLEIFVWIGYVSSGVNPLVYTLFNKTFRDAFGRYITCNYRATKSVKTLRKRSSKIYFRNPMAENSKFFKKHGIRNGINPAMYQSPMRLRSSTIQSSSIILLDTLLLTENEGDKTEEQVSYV

[43] = target: Calcium/calmodulin-dependent protein kinase type II subunit alpha (Homo sapiens) (UniProt Q9UQM7); test: CAMK2A ProQinase selectivity panel; settings: Compound concentration 1.0 uM
[44] = test system: Receptor-type tyrosine-protein kinase FLT3 (Homo sapiens), P36888 [D835Y]; test: FLT3 D835Y ProQinase selectivity panel; settings: Compound concentration 1.0 uM
[45] = target: Mitogen-activated protein kinase kinase kinase 3 (Homo sapiens) (UniProt Q99759); test: MEKK3 ProQinase selectivity panel; settings: Compound concentration 1.0 uM
[46] = target: Casein kinase I isoform epsilon (Homo sapiens) (UniProt P49674); test: CK1-epsilon ProQinase selectivity panel; settings: Compound concentration 1.0 uM
[47] = test system: Tyrosine-protein kinase ABL1 (Homo sapiens), P00519 [H396P]; test: ABL1 H396P ProQinase selectivity panel; settings: Compound concentration 1.0 uM
[48] = target: Wee1-like protein kinase (Homo sapiens) (UniProt P30291); test: WEE1 ProQinase selectivity panel; settings: Compound concentration 1.0 uM

## O=C1c2ccc(Nc3ccc(F)cc3F)cc2CCc2ccc(OC[C@H](O)CO)cc21 [Skepinone-L]
[1]
  % Residual activity with Skepinone-L: 77%
[2]
  % Residual activity with Skepinone-L: 91%
[3]
  % Residual activity with Skepinone-L: 90%
[4]
  % Residual activity with Skepinone-L: 111%
[5]
  % Residual activity with Skepinone-L: 94%
[6]
  % Residual activity with Skepinone-L: 33%
[7]
  % Residual activity with Skepinone-L: 104%
[8]
  % Residual activity with Skepinone-L: 95%
[9]
  % Residual activity with Skepinone-L: 101%
[10]
  inhibition: -3.22%
[11]
  % Residual activity with Skepinone-L: 94%
[12]
  % Residual activity with Skepinone-L: 86%
[13]
  inhibition: 10.3%
[14]
  % Residual activity with Skepinone-L: 89%
[15]
  % Residual activity with Skepinone-L: 86%
[16]
  % Residual activity with Skepinone-L: 89%
[17]
  inhibition: 7.19%
[18]
  % Residual activity with Skepinone-L: 121%
[19]
  % Residual activity with Skepinone-L: 102%
[20]
  % Residual activity with Skepinone-L: 96%
[21]
  % Residual activity with Skepinone-L: 95%
[22]
  % Residual activity with Skepinone-L: 125%
[23]
  % Residual activity with Skepinone-L: 100%
[24]
  % Residual activity with Skepinone-L: 100%
[25]
  % Residual activity with Skepinone-L: 91%
[26]
  % Residual activity with Skepinone-L: 116%
[27]
  % Residual activity with Skepinone-L: 113%
[28]
  % Residual activity with Skepinone-L: 89%
[29]
  % Residual activity with Skepinone-L: 97%
[30]
  inhibition: 48.5%
[31]
  % Residual activity with Skepinone-L: 77%
[32]
  % Residual activity with Skepinone-L: 106%
[33]
  % Residual activity with Skepinone-L: 109%
[34]
  % Residual activity with Skepinone-L: 88%
[35]
  % Residual activity with Skepinone-L: 78%
[36]
  % Residual activity with Skepinone-L: 96%
[37]
  % Residual activity with Skepinone-L: 3%
[38]
  % Residual activity with Skepinone-L: 128%
[39]
  inhibition: 5.83%
[40]
  % Residual activity with Skepinone-L: 102%
[41]; read-out: Ki
  Ki: 3.36 µM
[41]; read-out: pKi (converted)
  Ki: 3.24 µM
[42]; read-out: Ki
  Ki: 0.172 µM
[42]; read-out: pKi (converted)
  Ki: 0.166 µM
[43]
  % Residual activity with Skepinone-L: 83%
[44]
  % Residual activity with Skepinone-L: 101%
[45]
  % Residual activity with Skepinone-L: 96%
[46]
  % Residual activity with Skepinone-L: 86%
[47]
  % Residual activity with Skepinone-L: 99%
[48]
  % Residual activity with Skepinone-L: 88%
